From patent US6630501B1, “Phosphinic pseudo-peptides that may be used as matrix zinc metalloprotease inhibitors” (Commissariat a l'energie Atomique, priority 1999, dated 2003)

How the values were obtained:
MMP-1 (HFC) = molecular target: T1, MMP-1 (HFC) (Homo sapiens, UniProt P03956); assay: Ki determination with fluorogenic synthetic substrates, recombinant MMP-1; type: biochemical; conditions: for inhibition at 2000 µM / percentage of inhibition, MMP-1: @ 2 mM inhibitor
T1 construct: made in house; host or cells: E. coli
T1 sequence (P03956 100-469): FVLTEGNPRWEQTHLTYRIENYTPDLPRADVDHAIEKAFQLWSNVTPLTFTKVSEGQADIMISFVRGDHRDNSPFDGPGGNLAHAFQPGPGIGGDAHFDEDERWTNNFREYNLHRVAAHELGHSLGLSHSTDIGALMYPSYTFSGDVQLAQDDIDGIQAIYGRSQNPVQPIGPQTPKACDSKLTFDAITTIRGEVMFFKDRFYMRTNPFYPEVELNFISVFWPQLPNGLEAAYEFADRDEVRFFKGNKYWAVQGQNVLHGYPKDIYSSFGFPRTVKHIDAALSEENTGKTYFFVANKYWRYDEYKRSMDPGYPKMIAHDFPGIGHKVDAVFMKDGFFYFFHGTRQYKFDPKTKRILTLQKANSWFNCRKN
Protocol: (§1) The MMPs used were produced in recombinant form, in an E. coli expression system, and then purified using different types of chromatographies. Apart from stromelysin-3 (MMP-11), the MMPs produces correspond to human sequences. The Stromelysin-3 used in this study corresponds to the murine form.
(§2) The activity of each MMP was determined using two fluorogenic synthetic substrates. The cutoff of said substrates, which generates a fluorescent signal proportional to the quantity of split substrate, enables a precise determination of the kinetic parameters. The affinity constants Ki were calculated using the equation of Horowitz et al, Proc. Natl. Acad. Sci. USA, 1987, 84, p. 6654-6658 [14], accounting for the dependency of the percentage of inhibition measured experimentally according to the concentration of inhibitor, as a function of the enzyme and substrate concentration.
(§3) The experiments for conducted in a Tris/50 mM HCl buffer, pH 6.8, 10 mM CaCl2, 25° C.

MMP-14 (MT1-MMP) = molecular target: T2, MMP-14 (MT1-MMP) (Homo sapiens, UniProt P50281); assay: Ki determination with fluorogenic synthetic substrates, recombinant MMP-14; type: biochemical; conditions: for Ki: Tris/50 mM HCl buffer, pH 6.8, 10 mM CaCl2, 25° C., read-out: affinity constant Ki, MMP-14 MT1-MMP
T2 construct: made in house; host or cells: E. coli
Protocol: as §1, §2, §3

MMP-2 (Gel-A) = molecular target: T3, MMP-2 (Gel-A) (Homo sapiens, UniProt P08253); assay: Ki determination with fluorogenic synthetic substrates, recombinant MMP-2; type: biochemical; conditions: for Ki: Tris/50 mM HCl buffer, pH 6.8, 10 mM CaCl2, 25° C., read-out: affinity constant Ki, MMP-2 Gel-A; for inhibition at 2000 µM: @ 2 mM inhibitor, read-out: percentage of inhibition, MMP-2
T3 construct: made in house; host or cells: E. coli
T3 sequence (P08253 110-660): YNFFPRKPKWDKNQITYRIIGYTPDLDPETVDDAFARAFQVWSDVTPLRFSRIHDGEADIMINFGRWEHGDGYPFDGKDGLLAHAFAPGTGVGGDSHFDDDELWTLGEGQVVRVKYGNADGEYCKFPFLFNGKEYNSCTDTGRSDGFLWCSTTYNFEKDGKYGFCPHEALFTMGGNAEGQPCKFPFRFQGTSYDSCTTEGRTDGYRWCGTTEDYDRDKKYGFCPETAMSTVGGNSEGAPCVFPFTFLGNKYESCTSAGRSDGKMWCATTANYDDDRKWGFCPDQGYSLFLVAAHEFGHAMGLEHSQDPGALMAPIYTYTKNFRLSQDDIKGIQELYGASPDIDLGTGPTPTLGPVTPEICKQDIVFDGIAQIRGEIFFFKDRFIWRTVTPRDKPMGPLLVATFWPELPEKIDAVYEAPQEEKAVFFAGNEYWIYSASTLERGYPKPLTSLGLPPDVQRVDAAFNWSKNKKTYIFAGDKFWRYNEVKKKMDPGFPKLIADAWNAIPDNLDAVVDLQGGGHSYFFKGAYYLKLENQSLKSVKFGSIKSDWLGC
Protocol: as §1, §2, §3

MMP-9 (Gel-B) = molecular target: T4, MMP-9 (Gel-B) (Homo sapiens, UniProt P14780); assay: Ki determination with fluorogenic synthetic substrates, recombinant MMP-9; type: biochemical; conditions: for Ki: Tris/50 mM HCl buffer, pH 6.8, 10 mM CaCl2, 25° C., read-out: affinity constant Ki, MMP-9 Gel-B; for inhibition at 2000 µM: @ 2 mM inhibitor, read-out: percentage of inhibition, MMP-9
T4 construct: made in house; host or cells: E. coli
Protocol: as §1, §2, §3

[1] = molecular target: T5, MMP-11 (stromelysin-3, mST3) (Mus musculus, UniProt Q02853); assay: Ki determination with fluorogenic synthetic substrates, recombinant MMP-11; type: biochemical, murine; conditions: for Ki: Tris/50 mM HCl buffer, pH 6.8, 10 mM CaCl2, 25° C., read-out: affinity constant Ki, MMP-11 mST3
T5 construct: made in house; host or cells: E. coli
T5 sequence (Q02853 102-492): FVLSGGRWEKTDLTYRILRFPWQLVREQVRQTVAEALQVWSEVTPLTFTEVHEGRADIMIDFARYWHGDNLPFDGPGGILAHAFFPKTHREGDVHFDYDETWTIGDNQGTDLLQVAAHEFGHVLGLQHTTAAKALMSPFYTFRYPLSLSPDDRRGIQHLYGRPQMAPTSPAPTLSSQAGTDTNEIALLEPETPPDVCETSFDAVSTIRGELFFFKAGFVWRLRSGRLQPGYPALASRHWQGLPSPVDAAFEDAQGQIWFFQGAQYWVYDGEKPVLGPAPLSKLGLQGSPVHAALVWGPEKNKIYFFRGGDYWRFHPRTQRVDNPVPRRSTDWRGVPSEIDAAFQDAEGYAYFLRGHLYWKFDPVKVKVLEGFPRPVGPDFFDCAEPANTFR
Protocol: as §1, §2, §3

MMP-8 (HNC) = molecular target: T6, MMP-8 (HNC) (Homo sapiens, UniProt P22894); assay: Ki determination with fluorogenic synthetic substrates, recombinant MMP-8; type: biochemical; conditions: for Ki: Tris/50 mM HCl buffer, pH 6.8, 10 mM CaCl2, 25° C., read-out: affinity constant Ki, MMP-8 HNC
T6 construct: made in house; host or cells: E. coli
Protocol: as §1, §2, §3

MMP-7 (Matrilysin) = molecular target: T7, MMP-7 (Matrilysin) (Homo sapiens, UniProt P09237); assay: Ki determination with fluorogenic synthetic substrates, recombinant MMP-7; type: biochemical; conditions: for Ki: Tris/50 mM HCl buffer, pH 6.8, 10 mM CaCl2, 25° C., read-out: affinity constant Ki, MMP-7 Matrilysin
T7 construct: made in house; host or cells: E. coli
T7 sequence (P09237 95-267): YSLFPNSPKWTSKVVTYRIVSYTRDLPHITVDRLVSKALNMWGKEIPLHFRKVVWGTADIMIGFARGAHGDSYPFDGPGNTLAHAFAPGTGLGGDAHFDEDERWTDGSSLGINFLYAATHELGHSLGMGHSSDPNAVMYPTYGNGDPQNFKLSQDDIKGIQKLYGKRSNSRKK
Protocol: as §1, §2, §3

[2] = read-out: percentage of inhibition, MMP-1

T6 sequence (P22894 101-467): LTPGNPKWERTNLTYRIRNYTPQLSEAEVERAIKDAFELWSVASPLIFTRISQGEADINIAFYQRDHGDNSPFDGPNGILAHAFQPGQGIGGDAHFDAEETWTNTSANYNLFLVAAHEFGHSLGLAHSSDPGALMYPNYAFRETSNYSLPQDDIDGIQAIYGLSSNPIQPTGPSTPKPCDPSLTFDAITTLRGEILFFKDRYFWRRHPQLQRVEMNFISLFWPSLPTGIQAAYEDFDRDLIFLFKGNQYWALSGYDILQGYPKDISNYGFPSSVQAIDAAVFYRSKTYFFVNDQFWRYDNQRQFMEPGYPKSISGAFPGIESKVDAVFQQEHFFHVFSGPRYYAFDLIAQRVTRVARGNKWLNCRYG
T4 sequence (P14780 94-707): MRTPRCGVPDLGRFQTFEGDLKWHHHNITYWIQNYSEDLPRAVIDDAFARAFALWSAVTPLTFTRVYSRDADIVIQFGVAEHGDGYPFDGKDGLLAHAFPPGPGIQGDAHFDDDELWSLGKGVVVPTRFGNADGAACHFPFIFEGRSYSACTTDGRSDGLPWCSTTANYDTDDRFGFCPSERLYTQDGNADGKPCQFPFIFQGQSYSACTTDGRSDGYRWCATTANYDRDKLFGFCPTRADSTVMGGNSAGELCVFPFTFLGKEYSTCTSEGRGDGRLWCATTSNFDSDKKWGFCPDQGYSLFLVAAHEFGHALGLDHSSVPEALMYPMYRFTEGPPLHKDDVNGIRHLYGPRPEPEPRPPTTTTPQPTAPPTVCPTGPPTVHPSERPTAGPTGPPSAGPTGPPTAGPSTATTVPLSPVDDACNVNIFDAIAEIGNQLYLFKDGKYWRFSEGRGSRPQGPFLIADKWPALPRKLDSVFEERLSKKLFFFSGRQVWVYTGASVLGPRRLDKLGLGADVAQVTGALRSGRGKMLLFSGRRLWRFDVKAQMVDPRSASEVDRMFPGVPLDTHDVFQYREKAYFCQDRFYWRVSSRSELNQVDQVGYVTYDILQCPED

Structure (SMILES) | inhibition at 2000 µM (MMP-1 (HFC); [2]) [%] | Ki (MMP-14 (MT1-MMP)) [nM] | Ki (MMP-2 (Gel-A)) [nM] | Ki (MMP-9 (Gel-B)) [nM] | Ki [1] [nM] | Ki (MMP-8 (HNC)) [nM] | other results
NC(=O)[C@H](Cc1c[nH]c2ccccc12)NC(=O)C(CCCc1ccccc1)CP(=O)(O)C(Cc1ccccc1)NC(=O)OCc1ccccc1 (mixture of isomers) [Compound 15, ZPheΨ(PO2CpH2)pPheTrpNH2] | 23 | 105 | 20 | 10 | 5 | 2.5 | –
NC(=O)C(Cc1c[nH]c2ccccc12)NC(=O)C(CCCc1ccccc1)CP(=O)(O)C(Cc1ccccc1)NC(=O)OCc1ccccc1 (single isomer, unassigned) [Compound 15 R II] | – | 385 | 42 | 78 | 9 | 65 | percentage of inhibition, MMP-1 (MMP-1 (HFC); listed as R II): 16% @ 2 mM; percentage of inhibition, MMP-7 (MMP-7 (Matrilysin); @ 20 mM inhibitor, listed as R II): 34% @ 20 mM
NC(=O)C(Cc1c[nH]c2ccccc12)NC(=O)C(CCCc1ccccc1)CP(=O)(O)C(Cc1ccccc1)NC(=O)OCc1ccccc1 (single isomer, unassigned) [Compound 15 S II] | – | 2290 | 365 | 250 | 50 | 460 | percentage of inhibition, MMP-1 (MMP-1 (HFC); listed as S II): 6% @ 2 mM; percentage of inhibition, MMP-7 (MMP-7 (Matrilysin); @ 20 mM inhibitor, listed as S II): 29% @ 20 mM
NC(=O)C(Cc1c[nH]c2ccccc12)NC(=O)C(CCCc1ccccc1)CP(=O)(O)C(Cc1ccccc1)NC(=O)OCc1ccccc1 (single isomer, unassigned) [Compound 15 S I] | – | 135 | 45 | 33 | 5 | 16 | percentage of inhibition, MMP-1 (MMP-1 (HFC); listed as S I): 17% @ 2 mM; percentage of inhibition, MMP-7 (MMP-7 (Matrilysin); @ 20 mM inhibitor, listed as S I): 59% @ 20 mM
CC(NC(=O)OCc1ccccc1)P(=O)(O)CC(Cc1ccccc1)C(=O)NC(Cc1c[nH]c2ccccc12)C(N)=O (stereo not drawn) [Compound 7] | 24 | 2030 | 250 | 280 | 350 | 240 | –
CC(NC(=O)OCc1ccccc1)P(=O)(O)CC(CCc1ccccc1)C(=O)NC(Cc1c[nH]c2ccccc12)C(N)=O (stereo not drawn) [Compound 8] | 23 | 270 | 80 | 60 | 51 | 20 | –
CC(NC(=O)OCc1ccccc1)P(=O)(O)CC(CCCc1ccccc1)C(=O)NC(Cc1c[nH]c2ccccc12)C(N)=O (stereo not drawn) [Compound 9] | 30 | 92 | 31 | 23 | 100 | 8 | factor by which activity on MMP-8 is multiplied when R3 changes from benzyl to phenylpropyl (MMP-8 (HNC); compound 9 in relation to compound 7): 30
CC(NC(=O)OCc1ccccc1)P(=O)(O)CC(COCc1ccccc1)C(=O)NC(Cc1c[nH]c2ccccc12)C(N)=O (stereo not drawn) [Compound 10] | 15 | 550 | 250 | 44 | 175 | 19 | –
CC(NC(=O)OCc1ccccc1)P(=O)(O)CC(CSCc1ccccc1)C(=O)NC(Cc1c[nH]c2ccccc12)C(N)=O (stereo not drawn) [Compound 11] | 45 | 26 | 14 | 6 | 36 | – | –
CC(CP(=O)(O)C(Cc1ccccc1)NC(=O)OCc1ccccc1)C(=O)NC(Cc1c[nH]c2ccccc12)C(N)=O (stereo not drawn) [Compound 12] | 20 | – | – | – | 2670 | – | inhibition at 10000 µM (MMP-14 (MT1-MMP); @ 10 mM inhibitor, read-out: percentage of inhibition, MMP-14): 0%; inhibition at 2000 µM (MMP-2 (Gel-A)): 0%; inhibition at 2000 µM (MMP-9 (Gel-B)): 0%; inhibition at 1000 µM (MMP-8 (HNC); @ 1 mM inhibitor, read-out: percentage of inhibition, MMP-8): 9%
CC(C)CC(CP(=O)(O)C(Cc1ccccc1)NC(=O)OCc1ccccc1)C(=O)NC(Cc1c[nH]c2ccccc12)C(N)=O (stereo not drawn) [Compound 13] | – | 192 | 202 | 65 | 22 | 40 | percentage of inhibition, MMP-1 (MMP-1 (HFC)): 45% @ 2 mM; Ki (MMP-7 (Matrilysin)): 210 nM
NC(=O)C(Cc1c[nH]c2ccccc12)NC(=O)C(CCc1ccccc1)CP(=O)(O)C(Cc1ccccc1)NC(=O)OCc1ccccc1 (stereo not drawn) [Compound 14] | 10 | 660 | 275 | 110 | 8.8 | 45 | inhibitory power on MMP-11, in words [1]: very powerful
NC(=O)C(Cc1c[nH]c2ccccc12)NC(=O)C(CCCCc1ccccc1)CP(=O)(O)C(Cc1ccccc1)NC(=O)OCc1ccccc1 (stereo not drawn) [Compound 16] | – | 580 | 145 | 70 | 33 | 4.3 | percentage of inhibition, MMP-1 (MMP-1 (HFC)): 5% @ 2 mM; percentage of inhibition, MMP-7 (MMP-7 (Matrilysin); @ 50 mM inhibitor): 65% @ 50 mM
NC(=O)C(Cc1c[nH]c2ccccc12)NC(=O)C(COCc1ccccc1)CP(=O)(O)C(Cc1ccccc1)NC(=O)OCc1ccccc1 (stereo not drawn) [Compound 17] | 9 | 545 | 85 | 55 | 16 | 20 | –
CC(NC(=O)C(CCCc1ccccc1)CP(=O)(O)C(Cc1ccccc1)NC(=O)OCc1ccccc1)C(N)=O (stereo not drawn) [Compound 22] | 9 | 2960 | – | – | – | 240 | inhibition at 2000 µM (MMP-2 (Gel-A)): 31%; inhibition at 2000 µM (MMP-9 (Gel-B)): 45%; inhibition at 1000 µM ([1]; @ 1 mM inhibitor, read-out: percentage of inhibition, MMP-11): 20%
NC(=O)C(Cc1c[nH]c2ccccc12)NC(=O)C(CCCc1ccccc1)CP(=O)(O)C(Cc1ccccc1)NC(=O)c1cc2ccccc2[nH]1 (stereo not drawn) [Compound 30] | – | 41 | 10 | 8 | 1.5 | – | inhibition at 1 µM (MMP-1 (HFC); @ 1 μM inhibitor, read-out: percentage of inhibition, MMP-1): 87%; Ki (MMP-7 (Matrilysin)): 605 nM
